Results published in patent US8551965B2, “Anti-viral pyrimidine nucleoside analogues” (University College Cardiff Consultants Limited, priority 2000, dated 2013).
Read-outs that look alike come from different tables or passages of the source.

Experiments:
Format in all cases: cell-based
[1] = Cytotoxicity to human embryonic lung cells; conditions: 50% cytotoxic concentration to human embryonic lung cells
[2] = system: varicella zoster virus (VZV) YS viral strain; assay: VZV plaque reduction in tissue culture, YS strain; conditions: read-out: EC50 VZV YS
[3] = system: human embryonic lung cells; assay: Cytotoxicity to human embryonic lung cells; conditions: minimum cytotoxic concentration to human embryonic lung cells
Excerpt: MCC AM is the minimum cytotoxic concentration to human embryonic lung cells.

[4] = system: varicella zoster virus (VZV) OKA viral strain; assay: microbe, parasite or virus in culture; conditions: read-out: EC50 VZV OKA
[5] = system: varicella zoster virus (VZV) viral strain YS; TK deficient; assay: VZV plaque reduction in tissue culture, strain YS, TK deficient; conditions: read-out: EC50 VZV TK-YS
[6] = system: varicella zoster virus (VZV) viral strain 07; TK deficient; assay: microbe, parasite or virus in culture; conditions: read-out: EC50 VZV TK-07
[7] = system: human embryonic lung cells; assay: Cytotoxicity to human embryonic lung cells; conditions: 50% cytotoxic concentration to human embryonic lung cells
[8] = Human alphaherpesvirus 3, 120 h, reduce viral plaque formation after 5 days by 50% compared to untreated control, YS viral strain
[9] = Human alphaherpesvirus 3, 120 h
[10] = reduce viral plaque formation after 5 days by 50% compared to untreated control, OKA viral strain
[11] = reduce viral plaque formation after 5 days by 50%, viral strain YS, TK deficient
[12] = reduce viral plaque formation after 5 days by 50%, viral strain 07, TK deficient
[13] = reduce viral plaque formation after 5 days by 50% compared to untreated control, YS viral strain

Row | SMILES | CC50 [1] | EC50 [2, 8] | MCC [3] | EC50 [2, 9] | EC50 [4, 9] | EC50 [5, 9] | EC50 [6, 9] | EC50 [4, 10] | EC50 [5, 11] | CC50 [7] | EC50 [6, 12] | EC50 [2, 13]
1 | Nc1nc2c(ncn2COCCO)c(=O)[nH]1 [Acyclovir, reference compound] | > 200 µM | 1 µM | >200 µM | – | – | – | – | – | – | – | – | –
2 | O=c1[nH]c(=O)n([C@H]2C[C@H](O)[C@@H](CO)O2)cc1/C=C/Br [BVDU, (E)-5-(2-bromo-vinyl)-2′-deoxyuridine, reference compound] | – | – | – | 0.003 µM | – | – | – | – | – | – | – | –
3 | CCCCCCCCCCc1cc2cn([C@H]3C[C@H](O)[C@@H](CO)O3)c(=O)nc2o1 [Ex2 WO 98/49177, 3-(2-deoxy-β-D-ribofuranosyl)-6-decyl-2,3-dihydrofuro [2,3-d]pyrimidin-2-one, reference compound] | > 50 µM | 0.008 µM | >50 µM | – | 0.015 µM | > 50 µM | > 50 µM | – | – | – | – | –
4 | CCCCCCCCc1ccc(-c2cc3cn([C@H]4C[C@H](O)[C@@H](CO)O4)c(=O)nc3o2)cc1 [Example 6, 3-(2′-deoxy-β-D-ribofuranosyl)-6-(4-n-octylphenyl)-2,3-dihydrofuro[2,3-d]pyrimidin-2-one] | – | – | ≧20 μM | – | – | – | – | 0.015 µM | > 20 µM | > 200 µM | > 20 µM | 0.005 µM
5 | O=c1nc2oc(-c3ccccc3)cc2cn1[C@H]1C[C@H](O)[C@@H](CO)O1 [Example 7, 3-(2′-deoxy-β-D-ribofuranosyl)-6-(phenyl)-2,3-dihydrofuro-[2,3-d]pyrimidin-2-one] | – | – | >200 µM | – | – | – | – | < 0.5 µM | 162 µM | > 200 µM | > 200 µM | < 0.5 µM
6 | Cc1ccc(-c2cc3cn([C@H]4C[C@H](O)[C@@H](CO)O4)c(=O)nc3o2)cc1 [Example 8, 3-(2′-deoxy-β-D-ribofuranosyl)-6-(4-methylphenyl)-2,3-dihydrofuro-[2,3-d]pyrimidin-2-one] | – | – | >200 µM | – | – | – | – | < 0.5 µM | > 200 µM | > 200 µM | 103 µM | < 0.5 µM
7 | O=c1nc2oc(-c3ccc(F)cc3)cc2cn1[C@H]1C[C@H](O)[C@@H](CO)O1 [Example 10, 3-(2′-deoxy-β-D-ribofuranosyl)-6-(4-fluorophenyl)-2,3-dihydrofuro-[2,3-d]pyrimidin-2-one] | – | – | 200 µM | – | – | – | – | > 50 µM | > 50 µM | 171 µM | > 50 µM | > 50 µM
8 | O=c1nc2oc(-c3ccc(Cl)cc3)cc2cn1[C@H]1C[C@H](O)[C@@H](CO)O1 [Example 11] | > 200 µM | 0.08 µM | ≧20 μM | – | 0.1 µM | > 20 µM | > 20 µM | – | – | – | – | –
9 | O=c1nc2oc(-c3ccc(Br)cc3)cc2cn1[C@H]1C[C@H](O)[C@@H](CO)O1 [Example 12, 3-(2′-deoxy-β-D-ribofuranosyl)-6-(4-bromophenyl)-2,3-dihydrofuro-[2,3-d]pyrimidin-2-one] | 96 µM | 0.2 µM | >2 µM | – | 0.29 µM | > 5 µM | > 5 µM | – | – | – | – | –
10 | COc1ccc(-c2cc3cn([C@H]4C[C@H](O)[C@@H](CO)O4)c(=O)nc3o2)cc1 [Example 14, 3-(2′-deoxy-β-D-ribofuranosyl)-6-(4-methoxyphenyl)-2,3-dihydrofuro-[2,3-d]pyrimidin-2-one] | > 200 µM | 0.05 µM | 200 µM | – | – | > 50 µM | > 50 µM | – | – | – | – | –
11 | CCOc1ccc(-c2cc3cn([C@H]4C[C@H](O)[C@@H](CO)O4)c(=O)nc3o2)cc1 [Example 15, 3-(2′-deoxy-β-D-ribofuranosyl)-6-(4-ethoxyphenyl)-2,3-dihydrofuro-[2,3-d]pyrimidin-2-one] | > 200 µM | 0.01 µM | 200 µM | – | – | > 50 µM | 50 µM | – | – | – | – | –
12 | CCCOc1ccc(-c2cc3cn([C@H]4C[C@H](O)[C@@H](CO)O4)c(=O)nc3o2)cc1 [Example 16, 3-(2′-deoxy-β-D-ribofuranosyl)-6-(4-n-propoxyphenyl)-2,3-dihydrofuro-[2,3-d]pyrimidin-2-one] | > 200 µM | 0.002 µM | ≧200 μM | – | – | > 50 µM | 11 µM | – | – | – | – | –
13 | CCCCCOc1ccc(-c2cc3cn([C@H]4C[C@H](O)[C@@H](CO)O4)c(=O)nc3o2)cc1 [Example 17, 3-(2′-deoxy-β-D-ribofuranosyl)-6-(4-n-pentoxyphenyl)-2,3-dihydrofuro-[2,3-d]pyrimidin-2-one] | > 200 µM | 0.002 µM | >50 µM | – | – | > 20 µM | 3.7 µM | – | – | – | – | –
14 | CCCCCCOc1ccc(-c2cc3cn([C@H]4C[C@H](O)[C@@H](CO)O4)c(=O)nc3o2)cc1 [Example 18, 3-(2′-deoxy-β-D-ribofuranosyl)-6(4-n-hexoxyphenyl)-2,3-dihydrofuro-[2,3-d]pyrimidin-2-one] | > 200 µM | 0.002 µM | >20 µM | – | – | > 20 µM | > 5 µM | – | – | – | – | –
15 | CCCCCCCOc1ccc(-c2cc3cn([C@H]4C[C@H](O)[C@@H](CO)O4)c(=O)nc3o2)cc1 [Example 19, 3-(2′-deoxy-β-D-ribofuranosyl)-6-(4-n-heptoxyphenyl)-2,3-dihydrofuro-[2,3-d]pyrimidin-2-one] | > 200 µM | 0.002 µM | ≧50 μM | – | – | > 20 µM | > 50 µM | – | – | – | – | –
